Columns and labels:
[1] = test system: MCF-7 Tet-Off/ACSL4 cells; assay: BrdU incorporation cell proliferation assay in MCF-7 Tet-Off/ACSL4 cells; format: cell-based, human
Description: (§1) MCF-7 Tet-Off empty vector and MCF-7 Tet-Off/ACSL4 cells were plated at a density of 4000 cells/well in 96-well plates with 10% FBS-supplemented D-MEM medium and allowed to adhere overnight at 37° C. in a humidified, 5% CO2 atmosphere. The medium was then changed to serum-free medium. After 24 h, the cells were switched to 10% FBS-supplemented D-MEM medium and incubated with rapamycin (10 nM) and/or rosiglitazone (75 μM) for 96 h. Subsequently, cell proliferation was measured by the bromo-deoxyuridine (BrdU) incorporation assay.
Following the same procedure as that described in Example 1 above, the cells were switched to 10% FBS-supplemented D-MEM medium and incubated with rosiglitazone (10 or 25 μM) and/or 4-hydroxytamoxifen (4-OHTAM, 2.5 or 5.0 μM). Both rosiglitazone and 4-hydroxytamoxifen were tested alone at each of the concentrations used, and in all the possible combinations with each other (see FIG. 6A).

[2] = test system: MCF-7 Tet-Off empty vector cells; assay: BrdU incorporation cell proliferation assay in MCF-7 Tet-Off empty vector cells; format: cell-based; conditions: Homo sapiens, MCF7, 96 h, vs control cells
Description: as §1

Compound: CN(CCOc1ccc(CC2SC(=O)NC2=O)cc1)c1ccccn1 (stereo not shown) [Rosiglitazone]
- inhibition at 10 µM ([1]; Homo sapiens, MCF7, 96 h, Rosiglitazone 10 μM): 1.88%
- inhibition at 25 µM ([1]; Homo sapiens, MCF7, 96 h, Rosiglitazone 25 μM): 7.97%
- inhibition at 75 µM ([1]; Homo sapiens, MCF7, 96 h, Rosiglitazone 75 μM, vs control cells): 28.5%
- inhibition at 75 µM ([2]; Rosiglitazone 75 μM): 2.81%

Compound: CO[C@H]1C[C@@H]2CC[C@@H](C)[C@@](O)(O2)C(=O)C(=O)N2CCCC[C@H]2C(=O)O[C@H]([C@H](C)C[C@@H]2CC[C@@H](O)[C@H](OC)C2)CC(=O)[C@H](C)/C=C(\C)[C@@H](O)[C@@H](OC)C(=O)[C@H](C)C[C@H](C)/C=C/C=C/C=C/1C [Rapamycin]
- inhibition at 0.01 µM ([1]; Homo sapiens, MCF7, 96 h, Rapamycin 10 nM, vs control cells): 25%
- % inhibition of cell proliferation ([1]; Rapamycin 10 nM, 96 h, vs control cells): 22.159%
- inhibition at 0.01 µM ([2]; Rapamycin 10 nM): 12.2%

Compound: 4-hydroxytamoxifen [4-OHT]
- % inhibition of cell proliferation ([1]; 4-OHT 2.5 μM, 96 h): 0.802%
- % inhibition of cell proliferation ([1]; 4-OHT 5 μM, 96 h): 3.464%
- inhibition of cell proliferation (in words) ([1]; rosiglitazone 10 or 25 μM and/or 4-OHTAM 2.5 or 5 μM, 96 h, FIG. 6A): did not produce a significant inhibition

Reference: US9737515B2, “Compositions and methods for inhibiting tumor growth” (Consejo Nacional De Investigaciones Cientificas Y Tecnicas …, priority 2015, dated 2017)
